Experiments:
S. aureus DSM 20231 [1] = experiment: fitness (endpoint OD595 vs no drug) (fraction); higher = more growth
How it was run: (§1)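 Each well of a 384-well plate received 30 µl of culture at OD595 0.01, or 55 µl for S. pneumoniae. TSB, LB Lennox or CY served as media at 37 °C. OD595 was taken every 30 min for 14 h and corrected by subtracting the first reading. Fitness is the optical density at stationary-phase entry divided by the robust mean of no-drug controls, capped at 1.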

S. pneumoniae D39V [2] = experiment: as above
How it was run: as §1

S. aureus Newman [3] = experiment: as above
How it was run: as §1

B. subtilis 168 [4] = experiment: as above
How it was run: as §1

S. aureus DSM 20231 [5] = experiment: Bliss interaction score (quartile over a dose matrix) (fitness difference); higher = more antagonism (negative = synergy)
How it was run: (§2)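 At entry into stationary phase, OD595 was recorded and divided by the robust mean of the no-drug wells on that plate, with any value above 1 set to 1. This gives the fitness measure used throughout. Single-drug fitness was inferred from combination data, and the Bliss score, observed minus product-expected fitness, is shown as quartiles across technical, biological and donor/recipient replicates.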

S. pneumoniae D39V [6] = experiment: as above
How it was run: as §2

S. aureus Newman [7] = experiment: as above
How it was run: as §2

B. subtilis 168 [8] = experiment: as above
How it was run: as §2
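For Bliss interaction score (quartile over a dose matrix) in this document: first quartile when negative (synergy) and third quartile when positive (antagonism).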

COc1c(N2C[C@@H]3CCCN[C@@H]3C2)c(F)cc2c(=O)c(C(=O)O)cn(C3CC3)c12 [Moxifloxacin] + CN[C@@H]1[C@H](O)[C@H](NC)[C@H]2O[C@@]3(O)C(=O)C[C@@H](C)O[C@H]3O[C@@H]2[C@H]1O [Spectinomycin]
fitness
Conditions	partner 2 µg/mL	partner 4 µg/mL	partner 8 µg/mL	partner 16 µg/mL
B. subtilis 168 [4], first compound 0.0312 µg/mL	0.0488	0.0437	0.0518	–
B. subtilis 168 [4], first compound 0.0625 µg/mL	0.0414	0.0348	0.0153	–
B. subtilis 168 [4], first compound 0.125 µg/mL	0.026	0.0367	0.0296	–
B. subtilis 168 [4], first compound 2 µg/mL	0.0229	0.0184	0.0086	–
B. subtilis 168 [4], first compound 4 µg/mL	0.0296	0.0084	0.0039	–
B. subtilis 168 [4], first compound 8 µg/mL	0.0255	0.02	0.0092	–
S. aureus DSM 20231 [1], first compound 0.0075 µg/mL	–	0.822	0.848	0.731
S. aureus DSM 20231 [1], first compound 0.015 µg/mL	–	0.725	0.734	0.743
S. aureus DSM 20231 [1], first compound 0.03 µg/mL	–	0.654	0.74	0.694
S. aureus Newman [3], first compound 0.0075 µg/mL	–	0.742	0.748	0.7
S. aureus Newman [3], first compound 0.015 µg/mL	–	–	–	0.497
S. aureus Newman [3], first compound 0.03 µg/mL	–	–	0.0882	0.0514
S. pneumoniae D39V [2], first compound 0.005 µg/mL	–	0.923	0.936	0.82
S. pneumoniae D39V [2], first compound 0.01 µg/mL	–	0.944	0.93	0.836
S. pneumoniae D39V [2], first compound 0.02 µg/mL	–	0.896	0.843	0.796

one replicate
Conditions	fitness
S. aureus DSM 20231 [1], first compound 0.0075 µg/mL, partner 32 µg/mL	0.666
S. aureus DSM 20231 [1], first compound 0.0075 µg/mL, partner 64 µg/mL	0.0692
S. aureus DSM 20231 [1], first compound 0.015 µg/mL, partner 32 µg/mL	0.656
S. aureus DSM 20231 [1], first compound 0.015 µg/mL, partner 64 µg/mL	0.0534
S. aureus DSM 20231 [1], first compound 0.03 µg/mL, partner 32 µg/mL	0.625
S. aureus DSM 20231 [1], first compound 0.03 µg/mL, partner 64 µg/mL	0.0231
S. aureus DSM 20231 [1], first compound 0.06 µg/mL, partner 4 µg/mL	0.664
S. aureus DSM 20231 [1], first compound 0.06 µg/mL, partner 8 µg/mL	0.675
S. aureus DSM 20231 [1], first compound 0.06 µg/mL, partner 16 µg/mL	0.673
S. aureus DSM 20231 [1], first compound 0.12 µg/mL, partner 4 µg/mL	0.505
S. aureus DSM 20231 [1], first compound 0.12 µg/mL, partner 8 µg/mL	0.457
S. aureus DSM 20231 [1], first compound 0.12 µg/mL, partner 16 µg/mL	0.523
S. aureus Newman [3], first compound 0.0075 µg/mL, partner 32 µg/mL	0.464
S. aureus Newman [3], first compound 0.0075 µg/mL, partner 64 µg/mL	0.0581
S. aureus Newman [3], first compound 0.015 µg/mL, partner 32 µg/mL	0.294
S. aureus Newman [3], first compound 0.015 µg/mL, partner 64 µg/mL	0.047
S. aureus Newman [3], first compound 0.03 µg/mL, partner 32 µg/mL	0.0318
S. aureus Newman [3], first compound 0.03 µg/mL, partner 64 µg/mL	0.0289
S. pneumoniae D39V [2], first compound 0.0037 µg/mL, partner 4 µg/mL	0.897
S. pneumoniae D39V [2], first compound 0.0037 µg/mL, partner 8 µg/mL	0.83
S. pneumoniae D39V [2], first compound 0.0075 µg/mL, partner 4 µg/mL	0.912
S. pneumoniae D39V [2], first compound 0.0075 µg/mL, partner 8 µg/mL	0.816
S. pneumoniae D39V [2], first compound 0.015 µg/mL, partner 4 µg/mL	0.891
S. pneumoniae D39V [2], first compound 0.015 µg/mL, partner 8 µg/mL	0.813

Conditions	Bliss interaction score
B. subtilis 168 [8]	-0.0287
S. aureus DSM 20231 [5]	-0.0426
S. aureus Newman [7]	-0.0569
S. pneumoniae D39V [6]	0.0328

— the supplement of paper PMC10627819
